Laboratory results from PMC9728198, “Characterization of Two Self-Sufficient Monooxygenases, CYP102A15 and CYP102A170, as Long-Chain Fatty Acid Hydroxylases” (Journal of Microbiology and Biotechnology, 2020).
“And” between values parts separate entries of the source, which are not always exact repeats. Equal entries are not always repeated. Where two headings read alike, the source gives them in different places.

What was measured:
CYP102A15 [1] = target: T1, CYP102A15 (Bacillus sp. (in: firmicutes), UniProt A0A2S1UG59); experiment: NADPH consumption assay and kinetic parameters; settings: for CE (coupling efficiency) / PFR (product formation rate) / Km: CYP102A15; for Km: read-out: Km (Michaelis–Menten constant)
Description: (§1) The NADPH consumption assay was performed at 340 nm. […] The total volume of the reaction was 250 μl. The obtained data were analyzed using GraphPad Prism software, and experiments were replicated at least three times.
(§2) Saturated fatty acids, unsaturated fatty acids and other cyclic compounds were the three main types of substrates used to determine the NADPH oxidation rate. […] The coupling efficiencies, product formation rates (PFR), and Michaelis–Menten constants (Km) of CYP102A15 and CYP102A170 were also investigated.

CYP102A15 [2] = target: T1, CYP102A15; experiment: Spectral substrate binding titration (low-spin to high-spin Soret shift)
Description: (§3) The binding affinity was evaluated by spectrometrically analyzing the enzyme binding of each substrate.
(§4) At the beginning, substrates were selected as fatty acids with different chain lengths and the unsaturation extent was tested for enzyme binding capacity. Substrate binding was observed by alternating from low-spin heme iron with a Soret band maximum at 419 nm in the UV-visible spectrum to high-spin heme iron with a Soret band maximum at 389 nm (Figs. 4, S3, and S4).

CYP102A170 [3] = target: T2, CYP102A170 (Paenibacillus sp., UniProt A0A2U8SZJ5); experiment: as above
Description: as §3, §4

CYP102A170 [4] = target: T2, CYP102A170
Description: as §1, §2

CYP102A170 [5] = target: T2, CYP102A170; experiment: NADPH consumption assay and kinetic parameters; settings: for Km: read-out: Km (Michaelis–Menten constant)
Description: as §1, §2
CCCCCCCCCCCCCC(=O)O = experiment: purified protein, by the assay type
Description: as §1, §2

[6] = read-out: Kd (dissociation constant), CYP102A15, single-binding model for spectral change ΔA (A389–A419), 1 μM of protein
[7] = read-out: Kd (dissociation constant), CYP102A170, single-binding model for spectral change ΔA (A390–A420), 1 μM of protein

T1 sequence (A0A2S1UG59 1-1047): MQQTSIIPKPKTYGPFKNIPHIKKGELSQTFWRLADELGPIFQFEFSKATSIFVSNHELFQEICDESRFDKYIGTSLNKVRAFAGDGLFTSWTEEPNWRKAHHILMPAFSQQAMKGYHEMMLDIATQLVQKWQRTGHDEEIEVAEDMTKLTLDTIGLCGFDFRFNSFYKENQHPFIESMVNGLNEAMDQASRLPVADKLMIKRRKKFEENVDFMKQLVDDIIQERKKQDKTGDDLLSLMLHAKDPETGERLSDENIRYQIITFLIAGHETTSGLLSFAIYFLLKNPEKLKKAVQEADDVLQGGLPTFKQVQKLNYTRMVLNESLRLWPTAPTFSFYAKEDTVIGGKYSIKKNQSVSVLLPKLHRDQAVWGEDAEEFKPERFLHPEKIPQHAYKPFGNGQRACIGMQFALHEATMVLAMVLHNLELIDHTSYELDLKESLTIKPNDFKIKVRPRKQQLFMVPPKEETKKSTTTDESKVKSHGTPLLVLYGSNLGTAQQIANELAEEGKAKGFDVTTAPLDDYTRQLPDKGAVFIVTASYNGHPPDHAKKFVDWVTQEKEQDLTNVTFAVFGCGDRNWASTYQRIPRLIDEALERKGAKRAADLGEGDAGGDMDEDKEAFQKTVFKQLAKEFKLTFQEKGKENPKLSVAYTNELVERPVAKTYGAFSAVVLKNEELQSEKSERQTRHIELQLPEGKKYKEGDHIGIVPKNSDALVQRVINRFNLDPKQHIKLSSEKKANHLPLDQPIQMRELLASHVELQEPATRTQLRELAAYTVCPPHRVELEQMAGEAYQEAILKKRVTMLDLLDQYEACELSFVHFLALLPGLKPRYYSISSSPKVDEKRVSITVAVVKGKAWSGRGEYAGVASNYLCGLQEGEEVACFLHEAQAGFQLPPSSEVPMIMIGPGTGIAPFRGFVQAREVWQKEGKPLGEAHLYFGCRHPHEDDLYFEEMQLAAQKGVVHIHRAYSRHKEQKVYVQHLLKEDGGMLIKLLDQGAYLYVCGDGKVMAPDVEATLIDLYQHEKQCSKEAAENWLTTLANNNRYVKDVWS
T2 sequence (A0A2U8SZJ5 1-1057 limits assumed): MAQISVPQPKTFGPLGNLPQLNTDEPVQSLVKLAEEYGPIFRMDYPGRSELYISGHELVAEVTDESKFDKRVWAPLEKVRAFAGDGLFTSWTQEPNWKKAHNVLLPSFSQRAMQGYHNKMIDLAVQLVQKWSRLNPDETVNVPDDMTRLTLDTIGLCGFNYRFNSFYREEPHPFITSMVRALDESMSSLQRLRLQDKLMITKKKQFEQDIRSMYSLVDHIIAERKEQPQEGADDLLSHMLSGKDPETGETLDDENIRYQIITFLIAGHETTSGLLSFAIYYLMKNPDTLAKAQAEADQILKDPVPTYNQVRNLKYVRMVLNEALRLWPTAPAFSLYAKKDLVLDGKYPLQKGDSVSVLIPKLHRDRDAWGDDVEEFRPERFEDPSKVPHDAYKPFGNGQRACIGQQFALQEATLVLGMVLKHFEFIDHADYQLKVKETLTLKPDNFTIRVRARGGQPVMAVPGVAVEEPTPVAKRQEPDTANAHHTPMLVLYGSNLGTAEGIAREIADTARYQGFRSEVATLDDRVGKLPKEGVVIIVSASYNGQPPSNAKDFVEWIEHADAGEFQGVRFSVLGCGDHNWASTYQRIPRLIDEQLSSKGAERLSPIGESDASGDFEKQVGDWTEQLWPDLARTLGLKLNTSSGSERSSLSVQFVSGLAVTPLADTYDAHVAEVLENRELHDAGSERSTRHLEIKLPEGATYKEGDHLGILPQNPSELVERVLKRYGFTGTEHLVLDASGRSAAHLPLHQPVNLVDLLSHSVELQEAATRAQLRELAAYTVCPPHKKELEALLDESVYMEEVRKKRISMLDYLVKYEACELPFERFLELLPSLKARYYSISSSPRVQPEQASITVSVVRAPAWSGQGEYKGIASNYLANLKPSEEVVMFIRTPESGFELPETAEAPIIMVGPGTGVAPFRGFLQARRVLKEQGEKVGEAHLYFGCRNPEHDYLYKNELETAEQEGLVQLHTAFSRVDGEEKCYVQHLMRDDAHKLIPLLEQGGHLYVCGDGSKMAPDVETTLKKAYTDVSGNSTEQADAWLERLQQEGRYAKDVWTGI

Row | Compound | Kd (CYP102A15 [2]) | Kd (CYP102A170 [3]) | CE (coupling efficiency) (CYP102A15 [1]) | PFR (product formation rate) (CYP102A15 [1]) | other results
1 | CCOc1ccc2ccc(=O)oc2c1 [7-ethoxycoumarin] |  |  |  |  | NADPH consumption with cyclic compounds (in words) (CYP102A15 [1]; data not shown, sentence does not name the enzyme, b46 names CYP102A15): consumed the NADPH
2 | CCCCC/C=C\C/C=C\C/C=C\C/C=C\CCCC(=O)O [Arachidonic acid] | 29.8 ± 1.8 µM |  |  |  | 
3 | CC/C=C\C/C=C\C/C=C\C/C=C\C/C=C\CCCC(=O)O [Eicosapentaenoic acid] | 18.8 ± 3.8 µM | 1.3 ± 0.08 µM |  |  | 
4 | CCCCCCCCCCCC(=O)O [Lauric acid] |  |  | 90% | 7.00 ± 0.10 nmol/ nmol-P450/min | CE (coupling efficiency) (CYP102A170 [4]): 72%; Km (CYP102A15 [1]): 21.7 ± 3.6 µM; Kd (CYP102A15 [2]; [6]): 7.78 ± 0.7 µM; Kd (CYP102A170 [3]; [7]): 6.46 ± 0.3 µM; PFR (product formation rate) (CYP102A170 [5]): 31.68 ± 0.70 nmol/ nmol-P450/min; Km (CYP102A170 [5]): 13.4 ± 1.3 µM
5 | CCCCC/C=C\C/C=C\CCCCCCCC(=O)O [Linoleic acid] | 13.9 ± 1.5 µM | 1.36 ± 0.23 µM | 68% | 2.70 ± 0.30 nmol/ nmol-P450/min | Km (CYP102A15 [1]): 15.3 ± 4.7 µM
6 | CCCCCCCCCCCCCCCCC(=O)O [Margaric acid] |  |  |  |  | Kd (CYP102A15 [2]; [6]): 17.9 ± 1.21 µM; Kd (CYP102A170 [3]; [7]): 2.83 ± 0.17 µM; NADPH consumption rate (CYP102A170 [5]; 250 μM NADPH, 200 μM fatty acid, 0.5–1 μM enzyme, 340 nm): 8.2 nmol/nmol-CYP/min
7 | CCCCCCCCCCCCCC(=O)O [Myristic acid] | 14.9 ± 0.68 µM | 9.89 ± 0.39 µM | 80% | 35.91 ± 1.20 nmol/ nmol-P450/min | CE (coupling efficiency) (CYP102A170 [5]): 67%; PFR (product formation rate) (CYP102A170 [5]): 37.52 ± 1.90 nmol/ nmol-P450/min
8 | CCCCCCCC/C=C\CCCCCCCC(=O)O [Oleic acid] | 25.7 ± 2.8 µM | 2.23 ± 0.09 µM | 85% | 23.10 ± 5.30 nmol/ nmol-P450/min | CE (coupling efficiency) (CYP102A170 [4]): 51%; Km (CYP102A15 [1]): 39.1 ± 6.9 µM; PFR (product formation rate) (CYP102A170 [5]): 41.50 ± 1.30 nmol/ nmol-P450/min; Km (CYP102A170 [5]): 430 ± 98 µM
9 | CCCCCCCCCCCCCCCC(=O)O [Palmitic acid] | 11 ± 1.3 µM | 5.01 ± 0.23 µM |  |  | 
10 | CCCCCCCCCCCCCCCCCC(=O)O [Stearic acid] |  | 3.37 ± 0.2 µM |  |  | 
11 | CYP102A15 (Bacillus sp. (in: firmicutes)) |  |  |  |  | Km (CCCCCCCCCCCCCC(=O)O; other: CYP102A15): 386.10 ± 39.20 µM
12 | CYP102A170 (Paenibacillus sp.) |  |  |  |  | Km (CCCCCCCCCCCCCC(=O)O; other: CYP102A170): 17.4 µM and 17.43 ± 1.80 µM
